US12552775B2, “Compounds and uses thereof” (Foghorn Therapeutics Inc., priority 2020, dated 2026)

How the values were obtained:
HiBit-BRM fusion protein = target: T1, HiBit-BRM fusion protein (Homo sapiens, UniProt P51531); assay: HiBiT-BRM cell-based degradation assay (Nano-Glo HiBiT Lytic Detection, 24 h); details: stable HeLa cell line expressing HiBiT-BRM, top dose 30 μM
T1 construct: expressed in transfected cells
How it was run: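 Luminescence from HiBiT/LgBiT complementation after lysis reports remaining HiBiT-BRM in stable HeLa cells exposed to compound for 24 h. Dosing used 3-fold serial dilutions, 10 points, 30 μM top final concentration. DMSO and a 2 μM BRM/BRG1 degrader standard defined 0% and 100% degradation.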

[1] = target: T2, HiBit-BRG1 fusion protein (Homo sapiens, UniProt P51532); assay: HiBiT-BRG1 cell-based degradation assay (Nano-Glo HiBiT Lytic Detection, 24 h); details: stable HeLa cell line expressing HiBit-BRG1 and LgBit, top dose 30 μM, read-out: BRG1 HiBit Degradation Maximum (%)
T2 construct: expressed in transfected cells
T2 sequence (P51532 whole entry, the tested form may be a part): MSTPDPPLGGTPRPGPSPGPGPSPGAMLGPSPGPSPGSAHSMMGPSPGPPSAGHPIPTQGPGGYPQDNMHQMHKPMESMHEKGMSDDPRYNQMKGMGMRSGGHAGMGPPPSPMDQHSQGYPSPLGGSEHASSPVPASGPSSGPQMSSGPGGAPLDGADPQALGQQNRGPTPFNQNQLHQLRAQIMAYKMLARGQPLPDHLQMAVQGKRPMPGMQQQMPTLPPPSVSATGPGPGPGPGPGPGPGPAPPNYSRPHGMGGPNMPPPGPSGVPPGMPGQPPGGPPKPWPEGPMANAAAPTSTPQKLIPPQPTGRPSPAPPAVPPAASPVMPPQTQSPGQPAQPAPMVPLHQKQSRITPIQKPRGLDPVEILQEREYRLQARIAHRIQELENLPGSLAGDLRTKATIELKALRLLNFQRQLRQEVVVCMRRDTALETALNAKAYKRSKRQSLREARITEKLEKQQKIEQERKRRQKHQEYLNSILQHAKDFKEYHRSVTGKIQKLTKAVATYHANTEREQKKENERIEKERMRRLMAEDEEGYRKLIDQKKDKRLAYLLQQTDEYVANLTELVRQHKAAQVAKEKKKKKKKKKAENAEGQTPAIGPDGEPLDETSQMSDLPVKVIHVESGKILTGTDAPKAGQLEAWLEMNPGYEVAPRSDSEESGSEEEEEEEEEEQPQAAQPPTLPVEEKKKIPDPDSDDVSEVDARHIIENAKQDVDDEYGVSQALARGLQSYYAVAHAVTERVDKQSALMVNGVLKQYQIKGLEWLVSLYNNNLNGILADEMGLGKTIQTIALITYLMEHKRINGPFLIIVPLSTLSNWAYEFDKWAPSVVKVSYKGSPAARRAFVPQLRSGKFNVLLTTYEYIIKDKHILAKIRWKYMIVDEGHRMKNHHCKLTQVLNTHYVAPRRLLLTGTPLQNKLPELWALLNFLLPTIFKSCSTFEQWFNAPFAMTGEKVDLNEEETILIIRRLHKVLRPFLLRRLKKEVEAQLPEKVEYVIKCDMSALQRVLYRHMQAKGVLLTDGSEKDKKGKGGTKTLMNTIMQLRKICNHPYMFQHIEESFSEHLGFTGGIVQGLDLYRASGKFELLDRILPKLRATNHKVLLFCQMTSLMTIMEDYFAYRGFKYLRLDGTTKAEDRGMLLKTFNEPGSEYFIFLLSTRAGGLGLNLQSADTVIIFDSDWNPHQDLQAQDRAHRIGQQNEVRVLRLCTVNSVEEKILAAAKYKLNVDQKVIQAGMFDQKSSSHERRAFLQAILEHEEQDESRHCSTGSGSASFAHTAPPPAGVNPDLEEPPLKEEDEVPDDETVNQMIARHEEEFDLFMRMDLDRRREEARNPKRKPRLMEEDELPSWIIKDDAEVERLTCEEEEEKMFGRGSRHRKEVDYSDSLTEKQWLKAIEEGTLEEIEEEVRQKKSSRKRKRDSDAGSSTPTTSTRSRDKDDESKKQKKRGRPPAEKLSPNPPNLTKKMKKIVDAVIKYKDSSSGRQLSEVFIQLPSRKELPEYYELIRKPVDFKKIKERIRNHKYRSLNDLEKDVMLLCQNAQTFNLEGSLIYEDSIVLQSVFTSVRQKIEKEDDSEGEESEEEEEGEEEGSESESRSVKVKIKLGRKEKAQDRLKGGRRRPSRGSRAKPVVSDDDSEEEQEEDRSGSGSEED
How it was run: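 HeLa cells stably expressing HiBiT-BRG1 plus LgBiT were treated with 10-point 3-fold compound dilutions (top 30 μM final) for 24 h. Lytic Nano-Glo HiBiT luminescence was read. % degradation was normalised between DMSO (high control) and 2 μM of a reference BRM/BRG1 degrader (low control).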

T1 sequence (P51531 whole entry, the tested form may be a part): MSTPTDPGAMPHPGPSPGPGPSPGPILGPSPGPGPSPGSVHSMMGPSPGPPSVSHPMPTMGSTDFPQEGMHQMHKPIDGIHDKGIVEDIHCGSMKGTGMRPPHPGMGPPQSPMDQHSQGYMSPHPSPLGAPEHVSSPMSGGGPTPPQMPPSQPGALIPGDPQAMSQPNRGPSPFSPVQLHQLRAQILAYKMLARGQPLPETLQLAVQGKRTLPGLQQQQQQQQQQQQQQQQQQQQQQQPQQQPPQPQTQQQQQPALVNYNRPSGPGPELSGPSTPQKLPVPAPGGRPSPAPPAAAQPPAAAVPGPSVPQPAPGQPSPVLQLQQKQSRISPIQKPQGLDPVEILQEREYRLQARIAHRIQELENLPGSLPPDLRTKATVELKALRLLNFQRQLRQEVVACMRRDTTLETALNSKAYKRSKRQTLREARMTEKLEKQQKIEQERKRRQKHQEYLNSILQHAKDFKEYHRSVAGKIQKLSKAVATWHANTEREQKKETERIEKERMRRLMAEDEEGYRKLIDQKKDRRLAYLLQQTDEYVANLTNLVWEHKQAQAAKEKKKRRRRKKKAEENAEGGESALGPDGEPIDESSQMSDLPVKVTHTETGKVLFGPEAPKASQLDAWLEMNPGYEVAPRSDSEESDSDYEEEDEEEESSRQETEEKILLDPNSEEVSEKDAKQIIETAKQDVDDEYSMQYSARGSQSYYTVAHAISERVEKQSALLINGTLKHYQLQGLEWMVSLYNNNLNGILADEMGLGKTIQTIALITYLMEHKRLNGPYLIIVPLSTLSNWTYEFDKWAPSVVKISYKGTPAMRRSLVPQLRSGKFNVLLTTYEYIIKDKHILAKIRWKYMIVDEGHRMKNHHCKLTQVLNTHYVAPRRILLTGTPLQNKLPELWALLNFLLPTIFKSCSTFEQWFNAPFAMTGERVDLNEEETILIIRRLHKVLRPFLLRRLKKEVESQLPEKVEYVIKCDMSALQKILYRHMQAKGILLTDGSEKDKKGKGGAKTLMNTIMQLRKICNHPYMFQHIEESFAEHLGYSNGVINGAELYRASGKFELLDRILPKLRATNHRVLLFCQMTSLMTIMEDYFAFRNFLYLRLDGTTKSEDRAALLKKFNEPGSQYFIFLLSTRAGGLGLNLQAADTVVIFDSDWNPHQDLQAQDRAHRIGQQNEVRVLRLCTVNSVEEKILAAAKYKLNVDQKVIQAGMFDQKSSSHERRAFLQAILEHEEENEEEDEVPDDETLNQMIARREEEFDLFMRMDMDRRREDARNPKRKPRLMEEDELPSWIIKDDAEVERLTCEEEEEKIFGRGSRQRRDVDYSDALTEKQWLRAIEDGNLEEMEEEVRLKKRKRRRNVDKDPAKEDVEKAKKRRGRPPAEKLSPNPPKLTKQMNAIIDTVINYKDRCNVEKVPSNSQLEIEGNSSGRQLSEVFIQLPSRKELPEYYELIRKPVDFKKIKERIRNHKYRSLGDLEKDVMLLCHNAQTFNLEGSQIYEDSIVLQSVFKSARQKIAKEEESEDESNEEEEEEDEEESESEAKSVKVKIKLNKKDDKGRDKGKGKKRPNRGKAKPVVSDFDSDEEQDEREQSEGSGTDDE

Dmax [1] [%] | SMILES | BRM HiBit Degradation Maximum (%) (HiBit-BRM fusion protein)
< 50 | Nc1nnc(-c2ccccc2O)cc1OCC12CC(C(=O)N3CCN(CCCOc4ccc5c(c4)C(=O)N(C4CCC(=O)NC4=O)C5=O)CC3)(C1)C2 (stereo not drawn) [Compound 97, 5-(3-(4-(3-(((3-amino-6-(2-hydroxyphenyl)pyridazin-4-yl)oxy)methyl)bicyclo[1.1.1]pentane-1-carbonyl)piperazin-1-yl)propoxy)-2-(2,6-dioxopiperidin-3-yl)isoindoline-1,3-dione; formic acid] | C (“C” indicates maximum degradation < 50%)
< 50 | Nc1nnc(-c2ccccc2O)cc1OCC12CC(C(=O)N3CC4(CCN(CCCNc5ccc6c(c5)C(=O)N(C5CCC(=O)NC5=O)C6=O)CC4)C3)(C1)C2 (stereo not drawn) [Compound 98, 5-((3-(2-(3-(((3-amino-6-(2-hydroxyphenyl)pyridazin-4-yl)oxy)methyl)bicyclo[1.1.1]pentane-1-carbonyl)-2,7-diazaspiro[3.5]nonan-7-yl)propyl)amino)-2-(2,6-dioxopiperidin-3-yl)isoindoline-1,3-dione; formic acid] | B (“B” indicates maximum degradation ≥ 50%)
< 50 | Nc1nnc(-c2ccccc2O)cc1OCC12CC(C(=O)N3CCN(CCCCCOc4ccc5c(c4)C(=O)N(C4CCC(=O)NC4=O)C5=O)CC3)(C1)C2 (stereo not drawn) [Compound 99, 5-((5-(4-(3-(((3-amino-6-(2-hydroxyphenyl)pyridazin-4-yl)oxy)methyl)bicyclo[1.1.1]pentane-1-carbonyl)piperazin-1-yl)pentyl)oxy)-2-(2,6-dioxopiperidin-3-yl)isoindoline-1,3-dione; formic acid] | C (“C” indicates maximum degradation < 50%)
< 50 | Nc1nnc(-c2ccccc2O)cc1OCC12CC(C(=O)N3CC(CN4CCN(c5ccc6c(c5)C(=O)N(C5CCC(=O)NC5=O)C6=O)CC4)C3)(C1)C2 (stereo not drawn) [Compound 100, 5-(4-((1-(3-(((3-amino-6-(2-hydroxyphenyl)pyridazin-4-yl)oxy)methyl)bicyclo[1.1.1]pentane-1-carbonyl)azetidin-3-yl)methyl)piperazin-1-yl)-2-(2,6-dioxopiperidin-3-yl)isoindoline-1,3-dione; formic acid] | C (“C” indicates maximum degradation < 50%)
< 50 | Nc1nnc(-c2ccccc2O)cc1OCC12CC(C(=O)N3CCC(CN4CCN(c5ccc6c(c5)C(=O)N(C5CCC(=O)NC5=O)C6=O)CC4)CC3)(C1)C2 (stereo not drawn) [Compound 101, 5-(4-((1-(3-(((3-amino-6-(2-hydroxyphenyl)pyridazin-4-yl)oxy)methyl)bicyclo[1.1.1]pentane-1-carbonyl)piperidin-4-yl)methyl)piperazin-1-yl)-2-(2,6-dioxopiperidin-3-yl)isoindoline-1,3-dione] | B (“B” indicates maximum degradation ≥ 50%)
< 50 | Nc1nnc(-c2ccccc2O)cc1OCC12CC(C(=O)N3CCN(CC4CN(c5ccc6c(c5)C(=O)N(C5CCC(=O)NC5=O)C6=O)C4)CC3)(C1)C2 (stereo not drawn) [Compound 102, 5-(3-((4-(3-(((3-amino-6-(2-hydroxyphenyl)pyridazin-4-yl)oxy)methyl)bicyclo[1.1.1]pentane-1-carbonyl)piperazin-1-yl)methyl)azetidin-1-yl)-2-(2,6-dioxopiperidin-3-yl)isoindoline-1,3-dione] | B (“B” indicates maximum degradation ≥ 50%)
< 50 | Nc1nnc(-c2ccccc2O)cc1OCC12CC(C(=O)N3CCN(CCOc4ccc5c(c4)C(=O)N(C4CCC(=O)NC4=O)C5=O)CC3)(C1)C2 (stereo not drawn) [Compound 103, 5-(2-(4-(3-(((3-amino-6-(2-hydroxyphenyl)pyridazin-4-yl)oxy)methyl)bicyclo[1.1.1]pentane-1-carbonyl)piperazin-1-yl)ethoxy)-2-(2,6-dioxopiperidin-3-yl)isoindoline-1,3-dione; formic acid] | C (“C” indicates maximum degradation < 50%)
< 50 | Nc1nnc(-c2ccccc2O)cc1OCC12CC(C(=O)NCCC3CCN(c4ccc5c(c4)C(=O)N(C4CCC(=O)NC4=O)C5=O)CC3)(C1)C2 (stereo not drawn) [Compound 104, 3-(((3-amino-6-(2-hydroxyphenyl)pyridazin-4-yl)oxy)methyl)-N-(2-(1-(2-(2,6-dioxopiperidin-3-yl)-1,3-dioxoisoindolin-5-yl)piperidin-4-yl)ethyl)bicyclo[1.1.1]pentane-1-carboxamide] | C (“C” indicates maximum degradation < 50%)
< 50 | Cc1ncsc1-c1ccc(CNC(=O)[C@@H]2C[C@@H](O)CN2C(=O)[C@@H](NC(=O)C23CC(COc4cc(-c5ccccc5O)nnc4N)(C2)C3)C(C)(C)C)cc1 [Compound 105, (2S,4R)-1-((S)-2-(3-(((3-amino-6-(2-hydroxyphenyl)pyridazin-4-yl)oxy)methyl)bicyclo[1.1.1]pentane-1-carboxamido)-3,3-dimethylbutanoyl)-4-hydroxy-N-(4-(4-methylthiazol-5-yl)benzyl)pyrrolidine-2-carboxamide] | C (“C” indicates maximum degradation < 50%)
